The nature of data set [1]: Azadirachtin solubility and dispersion capability in aqueous phase. Format: physicochemical. The text has this: This value represents an azadirachtin dispersion capability 13 times greater than its solubility. That is, it is possible to prepare a new formulation for applying Neem extracts and oil with high azadirachtin contents, whereas the surfactant content is kept low (Tween®80=0.5% m/v). It should be clear for those skilled in the art that this value represents a non-limiting example; greater dispersion capabilities are fairly possible according to the extract content used.

Data set [2] is classed as physicochemical. The method, then:
Reproducibility, Resistance, Recovery, and Storage Stability
Azadirachtin solutions stores at 4° C. were considered stable.

The conditions of data set [3]: cited from earlier work.

Read-outs that look alike come from different tables or passages of the source.

Regarding `C/C=C(\C)C(=O)O[C@H]1C[C@@H](OC(C)=O)[C@@]2(C(=O)OC)CO[C@H]3[C@@H](O)[C@@](C)([C@]45O[C@@]4(C)[C@H]4C[C@@H]5O[C@@H]5OC=C[C@@]54O)[C@H]4[C@]1(CO[C@]4(O)C(=O)OC)[C@@H]32` [Azadirachtin, azadirachtin], the Azadirachtin solubility in data set [1] was found to be 26.0 mg 100 mL^−1. The storage stability entry in data set [2] is reported as “stable”. In addition, the results for the azadirachtin activity in data set [3] (after 4 hours of sunlight exposure) and in data set [3] (after 15 hours of sunlight exposure) were roughly 60% and roughly 50%, respectively.
